Test results published in article PMC10518257 (Nature Cancer, 2023).
“And” between values parts separate entries of the source, which are not always exact repeats. Equal entries are not always repeated. Where two headings read alike, the source gives them in different places.

Legend:
TT cells (RET C634W) = test: Dose-response western blotting, EC50 for inhibition of protein phosphorylation; type: cell-based; conditions: Homo sapiens
[1] = tested on: Ba/F3 KIF5B–RET^G810R allograft tumors; test: Subcutaneous allograft efficacy study; type: in vivo, BALB/c nude mice; conditions: in mm³ (unit assumed);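 also: mean tumor volume per dosing group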
LC-2/ad cells = test: Growth inhibition (alamarBlue, 96 h); type: cell-based, human; conditions: for raw viability signal (Source Data Fig. 3b-c): LC-2/Ad, replicate sets
[2] = tested on: Ba/F3 KIF5B–RET^WT allograft tumors; test: Subcutaneous allograft efficacy study; type: in vivo, BALB/c nude mice; conditions: Ba/F3-KIF5B::RET, Ext. Data Fig. 9b
Ba/F3-RET^M918T = test: Growth inhibition assay in Ba/F3 cells (CellTiter-Glo, 72 h); type: cell-based; conditions: Mus musculus, BaF3, 72 h, read-out: GI50 value (Mean ± SD), Ba/F3-RET^M918T, CellTiter-Glo, 72 h
[3] = tested on: phosphorylation of RET^G810R, RET^G810S and RET^G810C in Ba/F3 cells; test: Western blotting of RET phosphorylation in Ba/F3 KIF5B–RET cells; type: cell-based; conditions: 1 h, western blot
Ba/F3 cells = test: Growth inhibition assay in Ba/F3 cells (CellTiter-Glo, 72 h); type: cell-based; conditions: replicate Sets 1-3
LUAD-0087AS2 cells = test: Growth inhibition (alamarBlue, 96 h); type: cell-based, human; conditions: for raw viability signal (Source Data Fig. 3b-c): LUAD-0087AS2, replicate sets
[4] = tested on: Ba/F3 cells expressing KIF5B–RET^G810S; test: Growth inhibition assay in Ba/F3 cells (CellTiter-Glo, 72 h); type: cell-based; conditions: Ba/3-KIF5B-RET-G810S; replicate Sets 1-3
[5] = tested on: Ba/F3 cells expressing KIF5B–RET^V804M; test: as above; type: cell-based; conditions: replicate sets
[6] = tested on: LUAD-0002AS1 cells (KIF5B::RET); test: Dose-response western blotting, EC50 for inhibition of protein phosphorylation; type: cell-based; conditions: Homo sapiens, read-out: EC50 for Inhibition of Protein Phosphorylation (95% CI), AKT S473; LUAD-0002AS1, 2 h, densitometry

## CO[C@]1(C(=O)N[C@@H](C)c2ccc(-n3cc(F)cn3)nc2)CC[C@H](c2nc(C)cc(Nc3cc(C)[nH]n3)n2)CC1 [Pralsetinib]
TT cells (RET C634W); read-out: EC50 for Inhibition of Protein Phosphorylation (95% CI), AKT S473, 2 h, densitometry
  EC50: 1.5 nM
TT cells (RET C634W); read-out: EC50 for Inhibition of Protein Phosphorylation (95% CI), ERK1/2 T202/Y204, 2 h, densitometry
  EC50: 2 nM
TT cells (RET C634W); read-out: EC50 for Inhibition of Protein Phosphorylation (95% CI), MEK1/2 S217/S221, 2 h, densitometry
  EC50: 4.3 nM
TT cells (RET C634W); read-out: EC50 for Inhibition of Protein Phosphorylation (95% CI), P70 RSK T421/S424, 2 h, densitometry
  EC50: 0.4 nM
TT cells (RET C634W); read-out: EC50 for Inhibition of Protein Phosphorylation (95% CI), RET Y905, 2 h, densitometry
  EC50: 1 nM
TT cells (RET C634W); read-out: EC50 for Inhibition of Protein Phosphorylation (95% CI), S6RP S235/S236, 2 h, densitometry
  EC50: 0.7 nM
[1]; Fig. 7c Ba/F3-KIF5B::RET G810R, pralsetinib 10 mg/kg BID, day 1
  Tumor Volume Mean: 154.09
[1]; Fig. 7c Ba/F3-KIF5B::RET G810R, pralsetinib 10 mg/kg BID, day 4
  Tumor Volume Mean: 213.90
[1]; Fig. 7c Ba/F3-KIF5B::RET G810R, pralsetinib 10 mg/kg BID, day 8
  Tumor Volume Mean: 315.85
[1]; Fig. 7c Ba/F3-KIF5B::RET G810R, pralsetinib 10 mg/kg BID, day 11
  Tumor Volume Mean: 472.80
[1]; Fig. 7c Ba/F3-KIF5B::RET G810R, pralsetinib 10 mg/kg BID, day 15
  Tumor Volume Mean: 1059.21
[1]; Fig. 7d Ba/F3-KIF5B::RET G810R, pralsetinib 30 mg/kg BID, day 1
  Tumor Volume Mean: 163.0
[1]; Fig. 7d Ba/F3-KIF5B::RET G810R, pralsetinib 30 mg/kg BID, day 4
  Tumor Volume Mean: 312.7
[1]; Fig. 7d Ba/F3-KIF5B::RET G810R, pralsetinib 30 mg/kg BID, day 8
  Tumor Volume Mean: 411.9
[1]; Fig. 7d Ba/F3-KIF5B::RET G810R, pralsetinib 30 mg/kg BID, day 11
  Tumor Volume Mean: 562.8
[1]; Fig. 7d Ba/F3-KIF5B::RET G810R, pralsetinib 30 mg/kg BID, day 15
  Tumor Volume Mean: 747.9
LC-2/ad cells; Homo sapiens, LC-2-ad, 96 h, read-out: IC50 for Inhibition of Growth (95% CI)
  IC50: 18 nM
LC-2/ad cells; 0.01 nM
  raw viability signal (Source Data Fig. 3b-c): 14336.4 and 23167.3
LC-2/ad cells; 0.1 nM
  raw viability signal (Source Data Fig. 3b-c): 14242.4 and 23367.8
LC-2/ad cells; 1 nM
  raw viability signal (Source Data Fig. 3b-c): 13261.9 and 22232.1
LC-2/ad cells; 10 nM
  raw viability signal (Source Data Fig. 3b-c): 6314.77 and 17508.9
LC-2/ad cells; 100 nM
  raw viability signal (Source Data Fig. 3b-c): 3979.18 and 8357.34
LC-2/ad cells; 1000 nM
  raw viability signal (Source Data Fig. 3b-c): 2225.01 and 2896.43
LC-2/ad cells; 10000 nM
  raw viability signal (Source Data Fig. 3b-c): 918.728 and 947.198
[2]; 3 mg/kg BID, Day 1
  Tumor Volume Mean: 221.52 mm3
[2]; 3 mg/kg BID, Day 4
  Tumor Volume Mean: 379.17 mm3
[2]; 3 mg/kg BID, Day 8
  Tumor Volume Mean: 482.68 mm3
[2]; 3 mg/kg BID, Day 11
  Tumor Volume Mean: 745.24 mm3
[2]; 3 mg/kg BID, Day 15
  Tumor Volume Mean: 1198.84 mm3
[2]; 10 mg/kg BID, Day 1
  Tumor Volume Mean: 212.85 mm3
[2]; 10 mg/kg BID, Day 4
  Tumor Volume Mean: 215.66 mm3
[2]; 10 mg/kg BID, Day 8
  Tumor Volume Mean: 297.15 mm3
[2]; 10 mg/kg BID, Day 11
  Tumor Volume Mean: 403.26 mm3
[2]; 10 mg/kg BID, Day 15
  Tumor Volume Mean: 433.99 mm3
[2]; 30 mg/kg BID, Day 1
  Tumor Volume Mean: 218.49 mm3
[2]; 30 mg/kg BID, Day 4
  Tumor Volume Mean: 127.84 mm3
[2]; 30 mg/kg BID, Day 8
  Tumor Volume Mean: 80.68 mm3
[2]; 30 mg/kg BID, Day 11
  Tumor Volume Mean: 53.52 mm3
[2]; 30 mg/kg BID, Day 15
  Tumor Volume Mean: 67.12 mm3
[2]; 60 mg/kg BID, Day 1
  Tumor Volume Mean: 225.80 mm3
[2]; 60 mg/kg BID, Day 4
  Tumor Volume Mean: 95.08 mm3
[2]; 60 mg/kg BID, Day 8
  Tumor Volume Mean: 69.89 mm3
[2]; 60 mg/kg BID, Day 11
  Tumor Volume Mean: 52.39 mm3
[2]; 60 mg/kg BID, Day 15
  Tumor Volume Mean: 58.70 mm3
Ba/F3-RET^M918T
  GI50: 1.62 ± 0.77 nM
[3]
  block of phosphorylation of RET^G810R, RET^G810S or RET^G810C: did not block
Ba/F3 cells; Ba/F3 (parental)
  GI50: 1420 nM
Ba/F3 cells; Mus musculus, BaF3, Ba/F3 (parental)
  GI50: 1070 nM
LUAD-0087AS2 cells; Homo sapiens, 96 h, read-out: IC50 for Inhibition of Growth (95% CI)
  IC50: 24 nM
LUAD-0087AS2 cells; 0.01 nM
  raw viability signal (Source Data Fig. 3b-c): 10767.7 and 15151.6 and 17255.6 and 15692.7
LUAD-0087AS2 cells; 0.1 nM
  raw viability signal (Source Data Fig. 3b-c): 11083.5 and 15670.9 and 15636 and 16225.5
LUAD-0087AS2 cells; 1 nM
  raw viability signal (Source Data Fig. 3b-c): 10977.2 and 15832.3 and 16084.8 and 16863
LUAD-0087AS2 cells; 10 nM
  raw viability signal (Source Data Fig. 3b-c): 7788.62 and 8365.43 and 13487.5 and 12530.5
LUAD-0087AS2 cells; 100 nM
  raw viability signal (Source Data Fig. 3b-c): 2806.08 and 5716.79 and 2099.37 and 2602.78
LUAD-0087AS2 cells; 1000 nM
  raw viability signal (Source Data Fig. 3b-c): 2132.43 and 5081.65 and 1620.29 and 1608.1
LUAD-0087AS2 cells; 10000 nM
  raw viability signal (Source Data Fig. 3b-c): 2211.28 and 4121.33 and 1386.59 and 1376.18
[4]
  GI50: 26.2 nM and 86 nM and 39.5 nM
[5]; Ba/3-KIF5B-RET-V804M
  GI50: 7.93 nM and 8.94 nM
[5]; Mus musculus, BaF3, Ba/3-KIF5B-RET-V804M
  GI50: 8.92 nM
[6]
  EC50: 0.4 nM
